# Where two headings read alike, the source gives them in different places.
# Assays:
# [1] = system: Tetranychus urticae; experiment: Tetranychus urticae - spray test, OP-resistant (bean leaf discs, 6 days); assay type: in vivo; conditions: 500 g/ha, after 6 days; for pest or weed control at 500 g/ha: Tetranychus urticae, foliar, 144 h, read-out: efficacy (spider mites killed)
# Description: 5. Tetranychus urticae—Spray Test, OP-Resistant
# Solvent: 78.0 parts by weight of acetone
# • 1.5 parts by weight of dimethylformamide Emulsifier: alkylaryl polyglycol ether
# To produce a suitable preparation of active compound, 1 part by weight of active compound is dissolved using the stated parts by weight of solvent and made up with water containing an emulsifier concentration of 1000 ppm until the desired concentration is attained. To produce further test concentrations, the preparation is diluted with emulsifier-containing water.
# Discs of bean leaves (Phaseolus vulgaris) infested with all stages of the greenhouse red spider mite (Tetranychus urticae) are sprayed with an active compound preparation of the desired concentration.
# After 6 days, the efficacy in % is determined. 100% means that all the spider mites have been killed; 0% means that no spider mites have been killed.
# [2] = log P determination by HPLC on reversed-phase columns (C 18), analogous to OECD Guideline 117; assay type: physicochemical; conditions: for chromatographic logP: reversed-phase HPLC column (C 18); for logP[a]: method [a]; for logP[b]: method [b]
# Description: The log P values were determined analogously to OECD Guideline 117 (EC Directive 92/69/EEC) by HPLC (high-performance liquid chromatography) using reversed-phase columns (C 18), by the following methods: [a] The LC-MS determination in the acidic range was effected at pH 2.7 with 0.1% aqueous formic acid and acetonitrile (contains 0.1% formic acid) as eluents; linear gradient from 10% acetonitrile to 95% acetonitrile. log P[a] is also referred to as log P(HCOOH). [b] LC-MS determination in the neutral range was effected at pH 7.8 with 0.001 molar aqueous ammonium hydrogencarbonate solution and acetonitrile as eluents; linear gradient from 10% acetonitrile to 95% acetonitrile. log P[b] is also referred to as log P(neutral). Calibration is effected with solutions of a homologous series of unbranched alkan-2-ones (having 3 to 16 carbon atoms) with known log P values (log P values determined on the basis of the retention times by linear interpolation between two successive alkanones).
# [3] = pH 2.7, HPLC, acidic range, pH 2.7, 0.1% aqueous formic acid and acetonitrile, read-out: log P(HCOOH)
# [4] = pH 2.7, method [a], read-out: logP[a]
# [5] = pH 7.8, HPLC, neutral range, pH 7.8, 0.001 molar aqueous ammonium hydrogencarbonate and acetonitrile, read-out: log P(neutral)
# [6] = pH 7.8, method [b], read-out: logP[b]
# [7] = pH 2.7, Table 3, HPLC, acidic range, pH 2.7, read-out: logP[a]
# [8] = pH 7.8, Table 3, HPLC, neutral range, pH 7.8, read-out: logP[b]
SMILES,efficacy (spider mites killed) [1] [%],logP[a] [2],logP[b] [2],also measured
"Cc1cc(F)c(N2C(=O)CN(C(=O)NCC(C)C)C2=O)cc1SCC(F)(F)F [Ex. No. 12, 3-[2-Fluoro-4-methyl-5-(2,2,2-trifluoroethylsulphanyl)phenyl]-N-isobutyl-2,4-dioxoimidazolidine-1-carboxamide]",,,,"pest or weed control at 500 g/ha [1]: 100%; chromatographic logP [2, 3]: 3.67; chromatographic logP [2, 4]: 3.67; chromatographic logP [2, 5]: 3.58; chromatographic logP [2, 6]: 3.58"
CCNC(=O)N1CC(=O)N(c2cc([S+]([O-])CC(F)(F)F)c(C)cc2C)C1=O (stereo not shown) [compound 32],100,2.14,2.12,
Cc1cc(F)c(N2C(=O)CN(C(=S)NCC(F)(F)F)C2=O)cc1SCC(F)(F)F [compound 102],100,3.71,3.84,
Cc1cc(F)c(N2C(=O)CNC2=O)cc1[S+]([O-])CC(F)(F)F (stereo not shown) [IIb-1],,,,"pest or weed control at 500 g/ha [1]: 100%; chromatographic logP [2, 3]: 1.33; chromatographic logP [2, 7]: 1.33; chromatographic logP [2, 5]: 1.31; chromatographic logP [2, 8]: 1.31"
Cc1cc(F)c(N2C(=O)CN(C(=O)NC(C)C)C2=S)cc1[S+]([O-])CC(F)(F)F (stereo not shown) [compound 14],100,3.01,2.93,
Cc1cc(F)c(N2C(=O)N(C(=O)NCC(C)C)C(C)(C)C2=O)cc1[S+]([O-])CC(F)(F)F (racemic) [compound 86],100,3.41,3.39,
Cc1cc(C)c([S+]([O-])CC(F)(F)F)cc1N1C(=O)CN(C(=O)Nc2cccc(CC(F)(F)F)c2)C1=O (racemic) [compound 97],90,3.57,3.47,
"CCNC(=O)N1C(=O)N(c2cc(SCC(F)(F)F)c(C)cc2F)C(=O)C1C (stereo not shown) [Ex. No. 24, N-Ethyl-3-[2-fluoro-4-methyl-5-(2,2,2-trifluoroethylsulphanyl)phenyl]-5-methyl-2,4-dioxoimidazolidine-1-carboxamide]",,,,"pest or weed control at 500 g/ha [1]: 100%; chromatographic logP [2, 3]: 3.38; chromatographic logP [2, 4]: 3.38; chromatographic logP [2, 5]: 3.3; chromatographic logP [2, 6]: 3.3"
Cc1cc(F)c(N2C(=O)CN(C(=O)NCC(C)C)C2=S)cc1[S+]([O-])CC(F)(F)F (stereo not shown) [Ex. No. 13],90,3.33,3.24,
Cc1cc(F)c(N2C(=O)C(C)N(C(=O)NCc3ccccc3)C2=O)cc1SCC(F)(F)F (racemic) [compound 81],100,3.94,3.91,
O=C(Nc1ccc(F)cc1)N1CC(=O)N(c2cc([S+]([O-])CC(F)(F)F)c(Cl)cc2Cl)C1=O (racemic) [compound 116],100,3.39,3.46,
"Cc1cc(F)c(N2C(=O)N(C(=O)NC3CC3)C(C)(C)C2=O)cc1[S+]([O-])CC(F)(F)F (stereo not shown) [Ex. No. 84, N-Cyclopropyl-3-[2-fluoro-4-methyl-5-(2,2,2-trifluoroethylsulphinyl)phenyl]-5,5-dimethyl-2,4-dioxoimidazolidine-1-carboxamide]",,,,"pest or weed control at 500 g/ha [1]: 100%; chromatographic logP [2, 3]: 2.73; chromatographic logP [2, 4]: 2.73; chromatographic logP [2, 5]: 2.73; chromatographic logP [2, 6]: 2.73"
Cc1cc(C)c(N2C(=O)CN(C(=O)NCC(C)C)C2=O)cc1SCC(F)(F)F [compound 34],100,3.80,3.69,
Cc1cc(F)c(N2C(=O)N(C(=O)NCC(F)(F)F)C(C)(C)C2=O)cc1SCC(F)(F)F [compound 75],,4.02,3.95,
Cc1cc(Cl)c(N2C(=O)CN(C(=O)Nc3cccc(CC(F)(F)F)c3)C2=O)cc1SCC(F)(F)F [compound 58],100,4.51,4.38,
"Cc1cc(F)c(N2C(=O)CN(C(=O)NC3CC3)C2=O)cc1[S+]([O-])CC(F)(F)F (stereo not shown) [Ex. No. 3, N-Cyclopropyl-3-[2-fluoro-4-methyl-5-(2,2,2-trifluoroethylsulphinyl)phenyl]-2,4-dioxoimidazolidine-1-carboxamide]",,,,"pest or weed control at 500 g/ha [1]: 100%; chromatographic logP [2, 3]: 2.15; chromatographic logP [2, 4]: 2.15; chromatographic logP [2, 5]: 2.12; chromatographic logP [2, 6]: 2.12"
Cc1cc(C)c(N2C(=O)CN(C(=O)Nc3cccc(Cl)c3)C2=O)cc1SCC(F)(F)F [compound 56],,4.32,4.19,
"Cc1cc(F)c(N2C(=O)NC(C)(C)C2=O)cc1SCC(F)(F)F [IIa-5, 3-[2-Fluoro-4-methyl-5-(2,2,2-trifluoroethylsulphanyl)phenyl]-5,5-dimethylimidazolidine-2,4-dione]",,,,"chromatographic logP [2, 3]: 2.61; chromatographic logP [2, 7]: 2.61; chromatographic logP [2, 5]: 2.53; chromatographic logP [2, 8]: 2.53"

SMILES,efficacy (spider mites killed) [1] [%],logP[a] [2],logP[b] [2],also measured
CC(C)CNC(=O)N1CC(=O)N(c2cc([S+]([O-])CC(F)(F)F)c(Cl)cc2Cl)C1=O (racemic) [compound 113],100,3.21,3.28,
"Cc1cc(F)c(N2C(=O)NC(C)C2=O)cc1SCC(F)(F)F (stereo not shown) [IIa-3, 3-[2-Fluoro-4-methyl-5-(2,2,2-trifluoroethylsulphanyl)phenyl]-5-methylimidazolidine-2,4-dione]",,,,"chromatographic logP [2, 3]: 2.34; chromatographic logP [2, 7]: 2.34; chromatographic logP [2, 5]: 2.31; chromatographic logP [2, 8]: 2.31"
Cc1cc(F)c(N2C(=O)CN(C(=O)Nc3ccccc3)C2=O)cc1[S+]([O-])CC(F)(F)F (stereo not shown) [compound 19],90,2.89,2.83,
Cc1cc(C)c(N2C(=O)CN(C(=O)Nc3ccccn3)C2=O)cc1SCC(F)(F)F [compound 95],,3.47,3.42,
"Cc1cc(F)c(N2C(=O)CN(C(=O)NCC(F)(F)F)C2=O)cc1[S+]([O-])CC(F)(F)F (single isomer, unassigned) [Ex. No. 135]",,2.4,2.44,
Cc1cc(Cl)c(N2C(=O)CN(C(=O)Nc3ccccn3)C2=O)cc1SCC(F)(F)F [compound 96],,3.55,3.51,
Cc1cc(F)c(N2C(=O)CN(C(=O)Nc3cccnc3)C2=O)cc1SCC(F)(F)F [compound 17],,2.37,2.75,
"Cc1cc(F)c(N2C(=O)CN(C(=O)NC3CC3)C2=S)cc1SCC(F)(F)F [Ex. No. 2, N-Cyclopropyl-3-[2-fluoro-4-methyl-5-(2,2,2-trifluoroethylsulphanyl)phenyl]-4-oxo-2-thioxoimidazolidine-1-carboxamide]",,,,"chromatographic logP [2, 3]: 3.66; chromatographic logP [2, 4]: 3.66; chromatographic logP [2, 5]: 3.56; chromatographic logP [2, 6]: 3.56"
Cc1cc(F)c(N2C(=O)CN(C(=O)N(C)CC(C)C)C2=O)cc1SCC(F)(F)F [compound 124],,3.53,3.59,
CCNC(=O)N1C(=O)N(c2cc(SCC(F)(F)F)c(C)cc2F)C(=O)C1(C)C [compound 73],,3.72,3.70,
Cc1cc(F)c(N2C(=O)CN(C(=O)NC(C)C)C2=S)cc1SCC(F)(F)F [compound 5],,3.98,3.87,
O=C(NCc1ccccc1)N1CC(=O)N(c2cc(SCC(F)(F)F)c(Cl)cc2Cl)C1=O [compound 107],,3.86,3.90,
Cc1cc(F)c(N2C(=O)CN(C(=O)NCC(C)C)C2=S)cc1SCC(F)(F)F [compound 11],,4.27,4.18,
Cc1cc(C)c([S+]([O-])CC(F)(F)F)cc1N1C(=O)CN(C(=O)NCC(C)C)C1=O (stereo not shown) [compound 35],,2.77,2.76,
Cc1cc(Cl)c(N2C(=O)CN(C(=O)Nc3ccccn3)C2=O)cc1[S+]([O-])CC(F)(F)F (racemic) [compound 119],,2.65,2.65,
CCNC(=O)N1CC(=O)N(c2cc(SCC(F)(F)F)c(C)cc2F)C1=S [Ex. No. 8],,3.91,3.86,
Cc1cc(C)c(N2C(=O)CN(C(=O)Nc3ccc(F)cc3)C2=O)cc1SCC(F)(F)F [compound 93],,3.95,3.86,

# From patent publication US10206398B2, “Five-membered C-N-attached aryl sulphide and aryl sulphoxide derivatives as pesticides” (BAYER CROPSCIENCE AKTIENGESELLSCHAFT, priority 2014, dated 2019)
